Experimental data as given in patent US20060147520A1, “Treatment of pulmonary hypertension by inhaled iloprost with a microparticle formulation” (priority 2004, published 2006).
Read-outs that look alike come from different tables or passages of the source.

Key:
PAH = details: oral; cited from earlier work
men with ED = details: cited from earlier work
[1] = tested on: men with mild-to-severe ED; details: cited from earlier work
[2] = hydrophobicity scale of amino acids; assay type: physicochemical; details: scale on which glycine has the value 0.5
Text: Hydrophobicity is generally defined with respect to the partition of an amino acid between a nonpolar solvent and water. Hydrophobic amino acids are those acids which show a preference for the nonpolar solvent. Relative hydrophobicity of amino acids can be expressed on a hydrophobicity scale on which glycine has the value 0.5. On such a scale, amino acids which have a preference for water have values below 0.5 and those that have a preference for nonpolar solvents have a value above 0.5. As used herein, the term hydrophobic amino acid refers to an amino acid that, on the hydrophobicity scale has a value greater or equal to 0.5, in other words, has a tendency to partition in the […] which is at least equal to that of glycine.
A mixture including 40 weight % of an amino acid and 60 weight % DPPC is formed in a 70/30 vol/vol ethanol-water co-solvent and spray-dried and the geometric aerodynamic diameters for the particles are determined. In addition, the hydrophobicity and tap density may also be determined. Tap density may be determined using the equation provided above.

[3] = tested on: erectile dysfunction (ED); details: in vivo; cited from earlier work
[4] = glass stability of derivatized carbohydrates immersed in aqueous medium; assay type: physicochemical; details: THEX: saline medium at 37° C.; lactose derivative: water
[5] = tested on: African Green monkey kidney-derived cell line Vero; assay: toxicity of HDC glasses in vitro; assay type: cell-based; details: week of culture
Experimental: A saturated solution of TOAC in deionized distilled water (0.42 g in 20 mls) is tested for toxicity in vitro using the African Green monkey kidney-derived cell line Vero, in either a 10-fold serial dilution or by adding the TOAC powder directly to the tissue culture medium.

pulmonary hypertension [6] = details: cited from earlier work
patients with severe PAH = details: versus placebo; cited from earlier work
[7] = tested on: patients with pulmonary hypertension; details: administered by aerosolization; cited from earlier work
pulmonary hypertension [8] = details: in vivo; cited from earlier work
[9] = dissolution of HDC glass discs in water; assay type: physicochemical

SMILES: CC#CCC(C)[C@H](O)/C=C/[C@@H]1[C@H]2c3cccc(CCCC(=O)O)c3O[C@H]2C[C@H]1O (mixture of isomers) [Beraprost]
- benefit in PAH (PAH): benefit in a study in PAH at 3 and 6 months but not at 9 or 12 months

SMILES: CN1CC(=O)N2[C@H](c3ccc4c(c3)OCO4)c3[nH]c4ccccc4c3C[C@@H]2C1=O [Cialis, tadalafil]
- most commonly reported treatment-emergent adverse effects (men with ED; 10 mg, increased to 20 mg, at least one year): headache and upset stomach
- discontinuation rate for any individual adverse event (men with ED; in vivo): less than 1%
- patients who discontinued the study due to side effects (men with ED; in vivo): Five
- most commonly reported treatment-emergent adverse effects ([1]; greater than or equal to 5 percent): headache, back pain, and upset stomach
- patients who discontinued the study because of adverse events ([1]; in vivo): 5%

SMILES: N[C@@H](CCC(=O)O)C(=O)O [Glutamate]
- hydrophobicity [2]: 0.043

SMILES: CC[C@H](C)[C@H](N)C(=O)O [Isoleucine]
- hydrophobicity [2]: 0.943

SMILES: CCCc1nc(C)c2c(=O)[nH]c(-c3cc(S(=O)(=O)N4CCN(CC)CC4)ccc3OCC)nn12 [Levitra, vardenafil HC1]
- most commonly reported side effects [3]: headache, flushing, and stuffy or runny nose

SMILES: N[C@@H](Cc1ccccc1)C(=O)O [Phenylalanine]
- hydrophobicity [2]: 0.501

SMILES: CC(C)(C)CC(=O)O[C@@H]1[C@@H](OC(=O)CC(C)(C)C)[C@@H](O[C@H]2O[C@H](CO)[C@@H](OC(=O)CC(C)(C)C)[C@H](OC(=O)CC(C)(C)C)[C@H]2OC(=O)CC(C)(C)C)O[C@H](CO)[C@H]1OC(=O)CC(C)(C)C [THEX, Trehalose hexa-3,3-dimethylbutyrate]
- stability of the glassy state when immersed [4]: stable in the glassy state

SMILES: CC(=O)OCC1OC(OC2OC(COC(C)=O)C(OC(C)=O)C(OC(C)=O)C2OC(C)=O)C(OC(C)=O)C(OC(C)=O)C1OC(C)=O (centres unmarked) [TOAC, trehalose octaacetate]
- toxicity in vitro ([5]; saturated solution in water (0.42 g in 20 mls), 10-fold serial dilution or powder added to the medium): No toxic effects
- cell division [5]: normal

SMILES: COc1ccccc1Oc1c(NS(=O)(=O)c2ccc(C(C)(C)C)cc2)nc(-c2ncccn2)nc1OCCO [bosentan]
- liver toxicity (pulmonary hypertension [6]; higher dose): liver toxicity occurred
- six minute walk test (pulmonary hypertension [6]; whole group): improved

SMILES: CC#CCC(C)[C@H](O)/C=C/[C@@H]1[C@H]2C/C(=C/CCCC(=O)O)C[C@H]2C[C@H]1O (some centres unmarked) [iloprost]
- exercise capacity (patients with severe PAH): improved exercise capacity

SMILES: CC(=O)OC[C@H]1O[C@@H](O[C@H]2[C@H](OC(C)=O)[C@@H](OC(C)=O)C(OC(=O)C(C)C)O[C@@H]2COC(C)=O)[C@H](OC(C)=O)[C@@H](OC(C)=O)[C@H]1OC(C)=O (some centres unmarked) [lactose isobutyrate heptaacetate]
- stability of the glassy state when immersed [4]: very stable in the glassy state

SMILES: CCCCC[C@H](O)/C=C/[C@@H]1[C@H]2C/C(=C/CCCC(=O)O)O[C@H]2C[C@H]1O [prostacyclin]
- duration of effects [7]: 15 min

SMILES: Cc1cc2c(cc1CC(=O)c1sccc1S(=O)(=O)Nc1onc(C)c1Cl)OCO2 [sitaxsentan]
- decrease in pulmonary vascular resistance (pulmonary hypertension [8]): 30%
- six minute walk test (pulmonary hypertension [8]): improvement

SMILES: CC(=O)OC[C@H]1O[C@H](OC(C)=O)[C@H](OC(C)=O)[C@@H](OC(C)=O)[C@@H]1OC(C)=O [α-D-glucose pentaacetate]
- loss of original weight ([9]; disc in 1 l of water replaced daily, 7 days): 20%

SMILES: CC(=O)OC[C@H]1O[C@@H](OC(C)=O)[C@H](OC(C)=O)[C@@H](OC(C)=O)[C@@H]1OC(C)=O [β-D-glucose pentaacetate]
- solubility of the glass in water [9]: poorly soluble in water
- loss of original weight ([9]; disc 20 mm diameter, 2.5 mm thick, flowing water, 10 days): about 33%
